The results in this text go back to patent US20250340561A1, “QUINAZOLINE COMPOUND FOR INDUCING DEGRADATION OF G12D MUTANT KRAS PROTEIN” (Astellas Pharma Inc., priority 2021, published 2025).

In general, IC50 refers to the concentration needed to halve the response being measured.

Assay [1] deals with phosphorylation of ERK (Thr202/Tyr204). Description: Test Example 2: ERK phosphorylation inhibition action in AsPC-1, Cell ELISA. As to conditions: AsPC-1 cells, 0% = 1 μM trametinib. Format: cell-based, human. An outline of the steps:
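AsPC-1 cells (KRAS G12D) treated 24 h with compound (6 points, 10 μM to 3.0 nM final) in RPMI 1640/10% FBS. Fixed with glyoxal; pERK Thr202/Tyr204 detected by In-Cell ELISA with 800 nm fluorescence. IC50 by Sigmoid-Emax regression, with DMSO set to 100% and 1 μM trametinib to 0%.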

For assay [2], the system named is human G12D mutant KRAS-positive pancreatic cancer line AsPC-1. Description: Test Example 3: non-anchorage-dependent cell growth inhibition, spheroid 3D cell culture. The format is cell-based. The conditions noted are these: AsPC-1 spheroid 3D culture, 6 days, CellTiter Glo 2.0. The procedure, abridged:
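AsPC-1 cells were grown as spheroids (5×10^2 cells/well, low-adhesion round-bottom plates). Next day they were treated with compound at 6 final concentrations from 10 μM to 3.0 nM for 6 days at 37 °C, and viability was read by CellTiter Glo luminescence. IC50 came from Sigmoid-Emax nonlinear regression, normalized between DMSO-treated and cell-free wells.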

Where [3] appears, read: Homo sapiens, ASPC1, 24 h, read-out: IC50.
Setting [4] is: Homo sapiens, ASPC1, 144 h, read-out: IC50.

Where a name gives a salt, the structure may show the parent alone. Read-outs that look alike come from different tables or passages of the source.

Regarding `Cc1ncsc1-c1ccc([C@H](CO)NC(=O)[C@@H]2C[C@@H](O)CN2C(=O)[C@@H](NC(=O)c2ccc(COc3c(-c4c(C)c(F)cc5[nH]ncc45)c(C4CC4)cc4c(N5C[C@@H]6C[C@H]5CN6)nc(OC5CCOCC5)nc34)cc2)C(C)C)cc1` [Example 3], the IC50 in assay [1] (Homo sapiens, ASPC1, 24 h) came out at 62 nM; in assay [2] (Homo sapiens, ASPC1, 144 h), 108 nM.
On to `CCn1nccc1-c1ccc([C@H](CO)NC(=O)[C@@H]2C[C@@H](O)CN2C(=O)[C@H](C(C)C)n2cc(-c3ccc(COc4c(-c5c(C)c(F)cc6[nH]ncc56)c(C5CC5)cc5c(N6C[C@@H]7C[C@H]6CN7)nc(OC6CCOCC6)nc45)cc3)nn2)cc1` [Example 26], for which the IC50 turned out to be 8 nM in assay [1] (Homo sapiens, ASPC1, 24 h) and 20 nM in assay [2] (Homo sapiens, ASPC1, 144 h).
On to `Cc1c(F)cc2[nH]ncc2c1-c1c(C2CC2)cc2c(N3C[C@@H]4C[C@H]3CN4)nc(OC3CCOCC3)nc2c1OCc1ccc(-c2cn([C@H](C(=O)N3C[C@H](O)C[C@H]3C(=O)N[C@@H](CO)c3ccc(F)cc3)C(C)C)nn2)cc1` [Example 13], for which the IC50 in assay [1] (Homo sapiens, ASPC1, 24 h) worked out at 29 nM; in assay [2] (Homo sapiens, ASPC1, 144 h), 74 nM.
In the case of `CC[C@@H](C)Oc1nc(N2C[C@@H]3C[C@H]2CN3)c2cc(C3CC3)c(-c3c(C)c(F)cc4[nH]ncc34)c(OCc3ccc(-c4cn([C@H](C(=O)N5C[C@H](O)C[C@H]5C(=O)N[C@@H](CO)c5ccc(-c6scnc6C)cc5)C(C)C)nn4)cc3)c2n1` [Example 43], the IC50 turned out to be 11 nM in assay [1] (Homo sapiens, ASPC1, 24 h) and 16 nM in assay [2] (Homo sapiens, ASPC1, 144 h).
For `Cc1ncsc1-c1ccc([C@H](CO)NC(=O)[C@@H]2C[C@@H](O)CN2C(=O)[C@H](C(C)C)n2cc(-c3ccc(COc4c(-c5c(C)c(F)cc6[nH]ncc56)c(C5CC5)cc5c(N6C[C@@H]7C[C@H]6CN7)nc(O[C@H](C)CN(C)C)nc45)cc3)nn2)cc1` [Example 46], in that order: 22 nM and 56 nM.
As for `Cc1c(F)cc2[nH]ncc2c1-c1c(C2CC2)cc2c(N3C[C@@H]4C[C@H]3CN4)nc(OC3CCOCC3)nc2c1OCc1ccc(-c2cn([C@H](C(=O)N3C[C@H](O)C[C@H]3C(=O)N[C@@H](CO)c3ccccc3)C(C)C)nn2)cc1` (atropisomer, axis not shown) [Example 14], the IC50 in assay [1] (Homo sapiens, ASPC1, 24 h) was 63 nM; in assay [2] (Homo sapiens, ASPC1, 144 h), 153 nM.
For the molecule `Cc1ncsc1-c1ccc([C@H](CN(C)C)NC(=O)[C@@H]2C[C@@H](O)CN2C(=O)[C@H](C(C)C)n2cc(-c3ccc(COc4c(-c5c(C)c(F)cc6[nH]ncc56)c(C5CC5)cc5c(N6C[C@@H]7C[C@H]6CN7)nc(OC6CCOCC6)nc45)cc3)nn2)cc1` [Example 19], the IC50 in assay [1] (setting [3]) was 51 nM; in assay [2] (setting [4]), 138 nM.
For the molecule `Cc1ncsc1-c1ccc([C@H](CF)NC(=O)[C@@H]2C[C@@H](O)CN2C(=O)[C@H](C(C)C)n2cc(-c3ccc(COc4c(-c5c(C)c(F)cc6[nH]ncc56)c(C5CC5)cc5c(N6C[C@@H]7C[C@H]6CN7)nc(OC6CCOCC6)nc45)cc3)nn2)cc1` [Example 17], the IC50 in assay [1] (setting [3]) came out at 36 nM; in assay [2] (setting [4]), 104 nM.
For `CO[C@@H](C)COc1nc(N2C[C@@H]3C[C@H]2CN3)c2cc(C3CC3)c(-c3c(C)c(F)cc4[nH]ncc34)c(OCc3ccc(-c4cn([C@H](C(=O)N5C[C@H](O)C[C@H]5C(=O)N[C@@H](CO)c5ccc(N6CCOC6=O)cc5)C(C)C)nn4)cc3)c2n1` [Example 59], the IC50 amounted to 26 nM in assay [1] (Homo sapiens, ASPC1, 24 h) and 70 nM in assay [2] (Homo sapiens, ASPC1, 144 h).
In the case of `COC[C@H](CN1CCOCC1)Oc1nc(N2C[C@@H]3C[C@H]2CN3)c2cc(C3CC3)c(-c3c(C)c(F)cc4[nH]ncc34)c(OCc3ccc(-c4cn([C@H](C(=O)N5C[C@H](O)C[C@H]5C(=O)N[C@@H](CO)c5ccc(-c6scnc6C)cc5)C(C)C)nn4)cc3)c2n1` [Example 55], the values for the IC50 in assay [1] (setting [3]) and in assay [2] (setting [4]) were 38 nM and 76 nM, respectively.
On to `Cc1ncsc1-c1ccc([C@H](CO)NC(=O)[C@@H]2C[C@@H](O)CN2C(=O)[C@H](C(C)C)n2cc(-c3ccc(COc4c(-c5c(C)c(F)cc6[nH]ncc56)c(C5CC5)cc5c(N6C[C@@H]7C[C@H]6CN7)nc(OC6CCOCC6)nc45)cc3)nn2)cc1` [Example 8, (4R)-1-[(2S)-2-(4-{4-[({6-cyclopropyl-4-[(1S,4S)-2,5-diazabicyclo[2.2.1]heptan-2-yl]-7-(6-fluoro-5-methyl-1H-indazol-4-yl)-2-[(oxan-4-yl)oxy]quinazolin-8-yl}oxy)methyl]phenyl}-1H-1,2,3-triazol-1-yl)-3-methylbutanoyl]-4-hydroxy-N-{(1R)-2-hydroxy-1-[4-(4-methyl-1,3-thiazol-5-yl)phenyl]ethyl}-L-prolinamide], for which the IC50 in assay [1] (24 hours, read-out: IC50) is 15 nM; in assay [2] (read-out: IC50) it was 23 nM.
For `Cc1ncsc1-c1ccc(CNC(=O)[C@@H]2C[C@@H](O)CN2C(=O)[C@H](C(C)C)n2cc(-c3ccc(COc4c(-c5c(C)c(F)cc6[nH]ncc56)c(C5CC5)cc5c(N6C[C@@H]7C[C@H]6CN7)nc(OC6CCOCC6)nc45)cc3)nn2)cc1` [Example 10], the IC50 in assay [1] (Homo sapiens, ASPC1, 24 h) amounted to 26 nM; in assay [2] (Homo sapiens, ASPC1, 144 h), 114 nM.
For `Cc1ncsc1-c1ccc([C@H](CO)NC(=O)[C@@H]2C[C@@H](O)CN2C(=O)[C@H](C(C)C)n2cc(-c3ccc(COc4c(-c5c(C)c(F)cc6[nH]ncc56)c(C5CC5)cc5c(N6C[C@@H]7C[C@H]6CN7)nc(OC[C@H]6CCOC6)nc45)cc3)nn2)cc1` [Example 51], in that order: 14 nM and 27 nM.
For `Cc1ncsc1-c1ccc([C@H](CO)NC(=O)[C@@H]2C[C@@H](O)CN2C(=O)[C@H](C(C)C)n2cc(-c3ccc(COc4c(-c5c(C)c(F)cc6[nH]ncc56)c(C5CC5)cc5c(N6C[C@@H]7C[C@H]6CN7)nc(OC[C@H](C)N6CCOCC6)nc45)cc3)nn2)cc1` [Example 65], in that order: 11 nM and 45 nM.
Turning to `Cc1ncsc1-c1ccc(C2(NC(=O)[C@@H]3C[C@@H](O)CN3C(=O)[C@H](C(C)C)n3cc(-c4ccc(COc5c(-c6c(C)c(F)cc7[nH]ncc67)c(C6CC6)cc6c(N7C[C@@H]8C[C@H]7CN8)nc(OC7CCOCC7)nc56)cc4)nn3)CC2)cc1` [Example 6], the IC50 is 58 nM in assay [1] (Homo sapiens, ASPC1, 24 h) and 100 nM in assay [2] (Homo sapiens, ASPC1, 144 h).
Take `Cc1ncsc1-c1ccc([C@H](CO)NC(=O)[C@@H]2C[C@@H](O)CN2C(=O)[C@H](C(C)C)n2cc(-c3ccc(COc4c(-c5c(C)c(F)cc6[nH]ncc56)c(C5CC5)cc5c(N6C[C@@H]7C[C@H]6CN7)nc(OC[C@@H]6CCCN6C)nc45)cc3)nn2)cc1` [Example 57]: the IC50 in assay [1] (setting [3]) stood at 65 nM; in assay [2] (setting [4]), 90 nM.
For the molecule `CO[C@H](C)COc1nc(N2C[C@@H]3C[C@H]2CN3)c2cc(C3CC3)c(-c3c(C)c(F)cc4[nH]ncc34)c(OCc3ccc(-c4cn([C@H](C(=O)N5C[C@H](O)C[C@H]5C(=O)N[C@@H](CO)c5ccc(-c6scnc6C)cc5)C(C)C)nn4)cc3)c2n1` [Example 47], the IC50 in assay [1] (Homo sapiens, ASPC1, 24 h) worked out at 18 nM; in assay [2] (Homo sapiens, ASPC1, 144 h), 22 nM.
For `Cc1ncsc1-c1ccc([C@H](CO)NC(=O)[C@@H]2C[C@@H](O)CN2C(=O)C(C(C)C)n2cc(-c3ccc(COc4c(-c5c(C)c(F)cc6[nH]ncc56)c(C5CC5)cc5c(N6C[C@@H]7C[C@H]6CN7)nc(OC6CCOCC6)nc45)cc3)cn2)cc1` (single isomer, unassigned) [Example 11], in that order: 39 nM and 128 nM.
For the molecule `Cc1c(F)cc2[nH]ncc2c1-c1c(C2CC2)cc2c(N3C[C@@H]4C[C@H]3CN4)nc(OC3CCOCC3)nc2c1OCc1ccc(-c2cn([C@H](C(=O)N3C[C@H](O)C[C@H]3C(=O)N[C@@H](CO)c3ccc(-c4scnc4CO)cc3)C(C)C)nn2)cc1` [Example 18, (4R)-1-[(2S)-2-(4-{4-[({6-cyclopropyl-4-[(1S,4S)-2,5-diazabicyclo[2.2.1]heptan-2-yl]-7-(6-fluoro-5-methyl-1H-indazol-4-yl)-2-[(oxan-4-yl)oxy]quinazolin-8-yl}oxy)methyl]phenyl}-1H-1,2,3-triazol-1-yl)-3-methylbutanoyl]-4-hydroxy-N-[(1R)-2-hydroxy-1-{4-[4-(hydroxymethyl)-1,3-thiazol-5-yl]phenyl}ethyl]-L-prolinamide n hydrochloride], the IC50 in assay [1] (setting [3]) amounted to 28 nM; in assay [2] (setting [4]), 70 nM.
As to `Cc1ncsc1-c1ccc([C@H](CO)NC(=O)[C@@H]2C[C@@H](O)CN2C(=O)[C@H](C(C)C)n2cc(-c3ccc(COc4c(-c5c(C)c(F)cc6[nH]ncc56)c(C5CC5)cc5c(N6C[C@@H]7C[C@H]6CN7)nc(O[C@H](C)CN6CCOCC6)nc45)cc3)nn2)cc1` [Example 45], the IC50 in assay [1] (Homo sapiens, ASPC1, 24 h) came to 11 nM; in assay [2] (Homo sapiens, ASPC1, 144 h), 20 nM.
Consider `Cc1c(F)cc2[nH]ncc2c1-c1c(C2CC2)cc2c(N3C[C@@H]4C[C@H]3CN4)nc(OC3CCOCC3)nc2c1OCc1ccc(-c2cn([C@H](C(=O)N3C[C@H](O)C[C@H]3C(=O)N[C@@H](CO)c3ccc(-n4ccnc4C)cc3)C(C)C)nn2)cc1` [Example 69], for which the IC50 in assay [1] (setting [3]) worked out at 17 nM; in assay [2] (setting [4]), 64 nM.
On to `CO[C@@H](C)[C@H](C)Oc1nc(N2C[C@@H]3C[C@H]2CN3)c2cc(C3CC3)c(-c3c(C)c(F)cc4[nH]ncc34)c(OCc3ccc(-c4cn([C@H](C(=O)N5C[C@H](O)C[C@H]5C(=O)N[C@@H](CO)c5ccc(-c6scnc6C)cc5)C(C)C)nn4)cc3)c2n1` [Example 41], for which the IC50 in assay [1] (Homo sapiens, ASPC1, 24 h) was 17 nM; in assay [2] (Homo sapiens, ASPC1, 144 h) it was 31 nM.
For `Cc1ncsc1-c1ccc([C@H](CO)NC(=O)[C@@H]2C[C@@H](O)CN2C(=O)[C@H](C(C)C)n2cc(-c3ccc(COc4c(-c5c(C)c(F)cc6[nH]ncc56)c(C5CC5)cc5c(N6C[C@@H]7C[C@H]6CN7)nc(O[C@@H]6CCN(CC(F)F)C6)nc45)cc3)nn2)cc1` [Example 34], in that order: 26 nM and 33 nM.
